Measured values published in patent US20040209799A1, “JAK/STAT pathway inhibitors and the uses thereof” (priority 2000, published 2004).

Tests used:
Format in all cases: biochemical
[1] = target: T1, ZAP-70 (ζ-associated polypeptide of 70 kDa) protein tyrosine kinase (Homo sapiens, UniProt P43403); experiment: poly (Glu, Tyr) 4:1 ELISA, ZAP-70
T1 sequence (P43403 1-619): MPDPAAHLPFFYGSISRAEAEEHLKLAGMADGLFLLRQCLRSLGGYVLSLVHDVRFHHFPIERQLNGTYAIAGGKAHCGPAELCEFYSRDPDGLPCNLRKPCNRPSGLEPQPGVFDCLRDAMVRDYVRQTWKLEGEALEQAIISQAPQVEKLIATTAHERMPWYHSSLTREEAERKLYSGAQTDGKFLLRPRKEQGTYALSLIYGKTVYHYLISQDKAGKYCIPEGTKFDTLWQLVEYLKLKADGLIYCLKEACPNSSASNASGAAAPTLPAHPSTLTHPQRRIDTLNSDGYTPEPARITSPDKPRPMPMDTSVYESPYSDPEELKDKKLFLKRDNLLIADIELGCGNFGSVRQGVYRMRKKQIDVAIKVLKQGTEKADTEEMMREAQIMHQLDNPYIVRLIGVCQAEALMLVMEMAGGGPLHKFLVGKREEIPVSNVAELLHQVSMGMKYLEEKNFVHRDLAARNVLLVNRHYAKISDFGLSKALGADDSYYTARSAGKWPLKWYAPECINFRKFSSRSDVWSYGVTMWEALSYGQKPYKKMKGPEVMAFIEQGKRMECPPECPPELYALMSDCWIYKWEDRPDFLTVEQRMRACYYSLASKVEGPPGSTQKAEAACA
Method: (§1) To further examine the inhibition characteristics of DBH (and its variants) to a variety of cellular components, a poly (Glu, Tyr) 4:1 ELISA was performed. Hymenialdisine (H), DBH (as marine sponge extracts: see Chipman and Faulkner, 1997), and three variant forms of synthetic DBH: the free base form of DBH (DBH-2FB), a trifluoroacetic acid salt form of DBH (DBH-2S), and a methanesulfonic acid salt form of DBH (DBH 1) were solubilized in DMSO, and tested for the ability to inhibit; ZAP-70 (ζ-associated polypeptide of 70 kDa) protein tyrosine kinase, BTK (Bruton's agarnrnaglobulinaemia tyrosine kinase), JAK3 (Janus kinase 3) protein tyrosine kinase, LCK (Lymphoid T-cell protein tyrosine kinase), and IGFR (Insulin-like growth factor receptor) protein tyrosine kinase.
(§2) Maxisorb microtiter plates (Nalge Nunc International, Rochester, N.Y.) were coated with 1 mg/ml Poly(Glu,Tyr) 4:1 (Sigma, St. Louis, Mo.) solubilized in phosphate buffered saline (PBS), 0.02% sodium azide. On the day of the assay, microtiter plates were washed 4× with TBS-Tween (25 mM Tris pH 8.0, 150 mM NaCl, 0.05% Tween 20) using a Skatron plate washer (Skatron Instruments, Sterling, Va.). 200 μl of sterile blocking buffer (3% BSA in PBS, 0.02% sodium azide) was added to each well, and the microtiter plates were incubated at 37° C. for 1 hour. The blocking buffer was removed, the plates washed, and various concentrations of inhibitor were added in a 20 μl volume to the wells. 60 μl of the appropriate substrate mix was then added. Substrate mixes were prepared as described in Table 2:
(§3) Following addition of the substrate mix, 20 μl of the test protein tyrosine kinase (in 1× assay buffer) was added. Kinase reactions were incubated 30 min at 37° C., followed by washes in the Skatron plate washer. 100 μl of biotinylated PT-66 anti-phosphotyrosine monoclonal antibody (Sigma, St. Louis, Mo.) (diluted 1:4000 in 0.5% BSA, sterile-filtered TBS) was added to each well, and incubated for an additional 30 minutes at 37° C. […] The samples were then read at 450 nm in a plate reader.

[2] = target: T2, JAK3 (Janus kinase 3) protein tyrosine kinase (Homo sapiens, UniProt P52333); experiment: poly (Glu, Tyr) 4:1 ELISA, JAK3; details: inhibitors solubilized in DMSO, read-out: ec-50 (effective concentration for 50% inhibition) of JAK3
T2 sequence (P52333 1-1124): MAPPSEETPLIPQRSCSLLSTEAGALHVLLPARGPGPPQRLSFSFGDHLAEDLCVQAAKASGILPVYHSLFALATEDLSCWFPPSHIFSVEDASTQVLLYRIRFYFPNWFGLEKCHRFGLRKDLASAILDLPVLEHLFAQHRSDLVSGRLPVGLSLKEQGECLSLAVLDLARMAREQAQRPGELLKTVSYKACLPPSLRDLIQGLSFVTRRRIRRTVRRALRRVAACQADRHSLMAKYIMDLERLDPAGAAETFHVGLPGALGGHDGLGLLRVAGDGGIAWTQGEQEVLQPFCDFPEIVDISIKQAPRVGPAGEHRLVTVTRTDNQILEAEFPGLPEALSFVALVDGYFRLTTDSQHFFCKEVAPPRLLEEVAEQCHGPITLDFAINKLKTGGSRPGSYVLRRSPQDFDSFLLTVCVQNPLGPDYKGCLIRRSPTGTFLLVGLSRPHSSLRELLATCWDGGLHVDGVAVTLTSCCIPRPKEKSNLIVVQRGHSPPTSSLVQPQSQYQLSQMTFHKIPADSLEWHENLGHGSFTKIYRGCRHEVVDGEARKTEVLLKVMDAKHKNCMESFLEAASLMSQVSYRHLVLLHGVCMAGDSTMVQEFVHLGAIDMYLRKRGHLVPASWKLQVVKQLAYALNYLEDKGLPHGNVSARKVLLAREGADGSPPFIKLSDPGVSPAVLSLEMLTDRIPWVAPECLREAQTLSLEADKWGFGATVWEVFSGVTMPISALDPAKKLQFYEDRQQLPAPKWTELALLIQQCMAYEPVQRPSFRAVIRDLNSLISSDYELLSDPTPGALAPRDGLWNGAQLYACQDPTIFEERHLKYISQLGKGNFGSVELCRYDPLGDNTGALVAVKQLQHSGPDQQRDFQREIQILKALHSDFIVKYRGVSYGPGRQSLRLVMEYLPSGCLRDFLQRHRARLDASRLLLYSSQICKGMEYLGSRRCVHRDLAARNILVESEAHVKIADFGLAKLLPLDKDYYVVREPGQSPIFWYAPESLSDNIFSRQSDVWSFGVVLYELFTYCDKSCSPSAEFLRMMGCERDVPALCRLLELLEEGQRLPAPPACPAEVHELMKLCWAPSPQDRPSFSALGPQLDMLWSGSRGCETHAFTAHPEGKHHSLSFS
Method: as §1, §2, §3

[3] = target: LCK (Lymphoid T-cell protein tyrosine kinase) (Homo sapiens, UniProt P06239); experiment: poly (Glu, Tyr) 4:1 ELISA, LCK
Method: as §1, §2, §3

[4] = ec-50 values ranging from hundreds of micromolar to no inhibition (data not shown)

LCK (Lymphoid T-cell protein tyrosine kinase), sequence (P06239 whole entry, species assumed): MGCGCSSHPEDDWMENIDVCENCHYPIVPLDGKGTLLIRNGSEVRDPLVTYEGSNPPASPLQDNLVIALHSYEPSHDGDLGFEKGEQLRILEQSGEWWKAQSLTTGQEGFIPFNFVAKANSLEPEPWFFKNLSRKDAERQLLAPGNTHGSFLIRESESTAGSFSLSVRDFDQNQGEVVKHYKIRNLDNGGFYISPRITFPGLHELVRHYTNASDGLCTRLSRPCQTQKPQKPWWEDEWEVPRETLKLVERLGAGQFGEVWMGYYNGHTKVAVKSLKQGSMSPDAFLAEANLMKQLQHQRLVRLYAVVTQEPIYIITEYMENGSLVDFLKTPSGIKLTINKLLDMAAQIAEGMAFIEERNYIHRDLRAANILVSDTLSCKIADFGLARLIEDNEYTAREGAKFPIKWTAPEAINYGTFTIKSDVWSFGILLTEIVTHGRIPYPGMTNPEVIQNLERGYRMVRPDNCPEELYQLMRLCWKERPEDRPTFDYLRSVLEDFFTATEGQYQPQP

SMILES: NC1=NC(=O)C(=C2CCNC(=O)c3[nH]ccc32)N1 [DBH, 4-(2-amino-4-oxo-2-imidazolin-5-ylidene)-4,5,6,7-tetrahydropyrrolo(2,3-c) azepine-8-one]
- Inhibition of ZAP-70 [1, 4]: weak
- EC50 [2]: 23.4 to 34.4 µM
- Inhibition of LCK [3, 4]: weak

SMILES: NC1=NC(=O)C(=C2CCNC(=O)c3[nH]ccc32)N1 [DBH-2FB]
- IC50 ([1]; values for the four kinases range from 1971 μM to no inhibition, read-out: α-50 value for ZAP-70): ≥ 1970 µM
- EC50 [2]: 11.6 µM
- IC50 ([3]; values for the four kinases range from 1971 μM to no inhibition, read-out: α-50 value for LCK): ≥ 1970 µM
